Assay results published in patent US20250230193A1, “CYCLIC COMPOUND HAVING SELECTIVE KRAS INHIBITORY EFFECT ON HRAS AND NRAS” (CHUGAI SEIYAKU KABUSHIKI KAISHA, priority 2022, published 2025).

Experiments:
[1] = target: GDP-bound NRAS wild-type protein (Homo sapiens, UniProt P01111); assay: Binding to NRAS by surface plasmon resonance (SPR), Single Cycle Kinetics; conditions: SPR; KD ratio class
[2] = target: GDP-bound HRAS wild-type protein (Homo sapiens, UniProt P01112); assay: Binding to HRAS by surface plasmon resonance (SPR), Single Cycle Kinetics; conditions: SPR; KD ratio class
[3] = tested on: human lung cancer strain NCI-H441; assay: cells; conditions: NCI-H441, 96 h, read-out: NCI-H441 IC50 (nM)

Chain of GDP-bound HRAS wild-type protein (P01112 whole entry): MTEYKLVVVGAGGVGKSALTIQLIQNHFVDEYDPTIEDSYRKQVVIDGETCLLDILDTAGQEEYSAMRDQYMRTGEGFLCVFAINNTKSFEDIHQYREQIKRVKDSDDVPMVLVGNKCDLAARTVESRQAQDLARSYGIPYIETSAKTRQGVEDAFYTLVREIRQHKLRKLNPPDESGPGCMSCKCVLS
Chain of GDP-bound NRAS wild-type protein (P01111 whole entry): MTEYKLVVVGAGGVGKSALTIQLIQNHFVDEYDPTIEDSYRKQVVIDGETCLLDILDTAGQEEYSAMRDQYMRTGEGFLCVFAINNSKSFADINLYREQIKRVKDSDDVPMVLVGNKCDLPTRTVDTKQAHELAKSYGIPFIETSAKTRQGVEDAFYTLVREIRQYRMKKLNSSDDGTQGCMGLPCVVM

| IC50 [3] | SMILES | NRAS/KRAS (ratio of KD value for GDP-bound NRAS wild-type protein to KD value for KRAS) [1] | HRAS/KRAS (ratio of KD value for GDP-bound HRAS wild-type protein to KD value for KRAS) [2] |
| --- | --- | --- | --- |
| 12.8 nM | CCO[C@@H]1C[C@H]2C(=O)NC3(CCC3)C(=O)N(C)[C@@H](C3CCCC3)C(=O)N(C)[C@H](C(=O)N3CCOCC3)CC(=O)N(C)[C@@H](CC)C(=O)N[C@@H]([C@@H](C)CC)C(=O)N3CC[C@H]3C(=O)N(C)[C@H]3C[C@@H](C)[C@@H](C)CN(C3=O)[C@@H](Cc3ccc(C(F)(F)F)cc3)C(=O)N(C)CC(=O)N[C@@H](CCc3cc(F)c(C(F)(F)F)c(F)c3)C(=O)N2C1 [PP1351] | A (a compound having 10 or more and less than 20 is denoted as A) | B (a compound having 3 or more and less than 10 is denoted as B) |
| 4.6 nM | CCO[C@@H]1C[C@H]2C(=O)NC3(CCCC3)C(=O)N(C)[C@@H](C3CCCC3)C(=O)N(C)[C@H](C(=O)N(C)C)CC(=O)N(C)[C@@H](CC)C(=O)N[C@@H]([C@@H](C)CC)C(=O)N(C)CC(=O)N(C)[C@H]3C[C@@H](C)[C@@H](C)CN(C3=O)[C@@H](Cc3ccc(C(F)(F)F)cc3)C(=O)N(C)CC(=O)N[C@@H](CCc3cc(F)c(C(F)(F)F)c(F)c3)C(=O)N2C1 [PP1352] | A (a compound having 10 or more and less than 20 is denoted as A) | B (a compound having 3 or more and less than 10 is denoted as B) |
| 3.7 nM | CCO[C@@H]1C[C@H]2C(=O)NC3(CCCC3)C(=O)N(C)[C@@H](C3CCCC3)C(=O)N(C)[C@H](C(=O)N3CCOCC3)CC(=O)N(C)[C@@H](CC)C(=O)N[C@@H]([C@@H](C)CC)C(=O)N(C)CC(=O)N(C)[C@H]3C[C@@H](C)[C@@H](C)CN(C3=O)[C@@H](Cc3ccc(C(F)(F)F)cc3)C(=O)N(C)CC(=O)N[C@@H](CCc3cc(F)c(C(F)(F)F)c(F)c3)C(=O)N2C1 [PP1353] | A (a compound having 10 or more and less than 20 is denoted as A) | B (a compound having 3 or more and less than 10 is denoted as B) |
| 3.6 nM | CCO[C@@H]1C[C@H]2C(=O)NC3(CCC3)C(=O)N(C)[C@@H](C3CCCC3)C(=O)N(C)[C@H](C(=O)N3CCOCC3)CC(=O)N(C)[C@@H](CC)C(=O)N[C@@H]([C@@H](C)CC)C(=O)N(C)CC(=O)N(C)[C@H]3C[C@@H](C)[C@@H](C)CN(C3=O)[C@@H](Cc3ccc(C(F)(F)F)cc3)C(=O)N(C)CC(=O)N[C@@H](CCc3cc(F)c(C(F)(F)F)c(F)c3)C(=O)N2C1 [PP1354] | A (a compound having 10 or more and less than 20 is denoted as A) | B (a compound having 3 or more and less than 10 is denoted as B) |
| 10.2 nM | CCO[C@@H]1C[C@H]2C(=O)NC3(CCC3)C(=O)N(C)[C@@H](C3CCCC3)C(=O)N(C)[C@H](C(=O)N3CCOCC3)CC(=O)N(C)[C@@H](CC(C)C)C(=O)N[C@@H]([C@@H](C)CC)C(=O)N3CC[C@H]3C(=O)N(C)[C@H]3C[C@@H](C)[C@@H](C)CN(C3=O)[C@@H](Cc3ccc(C(F)(F)F)cc3)C(=O)N(C)CC(=O)N[C@@H](CCc3cc(F)c(C(F)(F)F)c(F)c3)C(=O)N2C1 [PP1355] | A (a compound having 10 or more and less than 20 is denoted as A) | B (a compound having 3 or more and less than 10 is denoted as B) |
| 3.3 nM | CCO[C@@H]1C[C@H]2C(=O)NC3(CCCC3)C(=O)N(C)[C@@H](C3CCCC3)C(=O)N(C)[C@H](C(=O)N(C)C)CC(=O)N(C)[C@@H](CC3CC3)C(=O)N[C@@H]([C@@H](C)CC)C(=O)N(C)CC(=O)N(C)[C@H]3C[C@@H](C)[C@@H](C)CN(C3=O)[C@@H](Cc3ccc(C(F)(F)F)cc3)C(=O)N(C)CC(=O)N[C@@H](CCc3cc(F)c(C(F)(F)F)c(F)c3)C(=O)N2C1 [PP1356] | B (a compound having 3 or more and less than 10 is denoted as B) | B (a compound having 3 or more and less than 10 is denoted as B) |
| 5.4 nM | CCO[C@@H]1C[C@H]2C(=O)NC3(CCC3)C(=O)N(C)[C@@H](C3CCCC3)C(=O)N(C)[C@H](C(=O)N3CCOCC3)CC(=O)N(C)[C@@H](CC)C(=O)N[C@@H]([C@@H](C)CC)C(=O)N3CC[C@H]3C(=O)N(C)[C@H]3C[C@@H](C)[C@@H](C)CN(C3=O)[C@@H](Cc3ccc(C(F)(F)F)cc3)C(=O)N(C)CC(=O)N[C@@H](CCc3ccc(C(F)(F)F)c(Cl)c3)C(=O)N2C1 [PP1357] | A (a compound having 10 or more and less than 20 is denoted as A) | B (a compound having 3 or more and less than 10 is denoted as B) |
| 4.1 nM | CCO[C@@H]1C[C@H]2C(=O)NC3(CCCC3)C(=O)N(C)[C@@H](C3CCCC3)C(=O)N(C)[C@H](C(=O)N(C)C)CC(=O)N(C)[C@@H](CC)C(=O)N[C@@H]([C@@H](C)CC)C(=O)N(C)CC(=O)N(C)[C@H]3C[C@@H](C)[C@@H](C)CN(C3=O)[C@@H](Cc3ccc(C(F)(F)F)cc3)C(=O)N(C)CC(=O)N[C@@H](CCc3ccc(C(F)(F)F)c(Cl)c3)C(=O)N2C1 [PP1358] | A (a compound having 10 or more and less than 20 is denoted as A) | B (a compound having 3 or more and less than 10 is denoted as B) |
| 3.2 nM | CCO[C@@H]1C[C@H]2C(=O)NC3(CCCC3)C(=O)N(C)[C@@H](C3CCCC3)C(=O)N(C)[C@H](C(=O)N3CCOCC3)CC(=O)N(C)[C@@H](CC)C(=O)N[C@@H]([C@@H](C)CC)C(=O)N(C)CC(=O)N(C)[C@H]3C[C@@H](C)[C@@H](C)CN(C3=O)[C@@H](Cc3ccc(C(F)(F)F)cc3)C(=O)N(C)CC(=O)N[C@@H](CCc3ccc(C(F)(F)F)c(Cl)c3)C(=O)N2C1 [PP1359] | A (a compound having 10 or more and less than 20 is denoted as A) | B (a compound having 3 or more and less than 10 is denoted as B) |
| 4.9 nM | CCO[C@@H]1C[C@H]2C(=O)NC3(CCC3)C(=O)N(C)[C@@H](C3CCCC3)C(=O)N(C)[C@H](C(=O)N3CCOCC3)CC(=O)N(C)[C@@H](CC)C(=O)N[C@@H]([C@@H](C)CC)C(=O)N(C)CC(=O)N(C)[C@H]3C[C@@H](C)[C@@H](C)CN(C3=O)[C@@H](Cc3ccc(C(F)(F)F)cc3)C(=O)N(C)CC(=O)N[C@@H](CCc3ccc(C(F)(F)F)c(Cl)c3)C(=O)N2C1 [PP1360] | A (a compound having 10 or more and less than 20 is denoted as A) | B (a compound having 3 or more and less than 10 is denoted as B) |
| 6.2 nM | CCO[C@@H]1C[C@H]2C(=O)NC3(CCC3)C(=O)N(C)[C@@H](C3CCCC3)C(=O)N(C)[C@H](C(=O)N3CCOCC3)CC(=O)N(C)[C@@H](CC(C)C)C(=O)N[C@@H]([C@@H](C)CC)C(=O)N3CC[C@H]3C(=O)N(C)[C@H]3C[C@@H](C)[C@@H](C)CN(C3=O)[C@@H](Cc3ccc(C(F)(F)F)cc3)C(=O)N(C)CC(=O)N[C@@H](CCc3ccc(C(F)(F)F)c(Cl)c3)C(=O)N2C1 [PP1361] | A (a compound having 10 or more and less than 20 is denoted as A) | B (a compound having 3 or more and less than 10 is denoted as B) |
| 3.7 nM | CCO[C@@H]1C[C@H]2C(=O)NC3(CCCC3)C(=O)N(C)[C@@H](C3CCCC3)C(=O)N(C)[C@H](C(=O)N(C)C)CC(=O)N(C)[C@@H](CC3CC3)C(=O)N[C@@H]([C@@H](C)CC)C(=O)N(C)CC(=O)N(C)[C@H]3C[C@@H](C)[C@@H](C)CN(C3=O)[C@@H](Cc3ccc(C(F)(F)F)cc3)C(=O)N(C)CC(=O)N[C@@H](CCc3ccc(C(F)(F)F)c(Cl)c3)C(=O)N2C1 [PP1362] | A (a compound having 10 or more and less than 20 is denoted as A) | B (a compound having 3 or more and less than 10 is denoted as B) |
| 7.1 nM | CC[C@H](C)[C@@H]1NC(=O)[C@H](CC)N(C)C(=O)C[C@@H](C(=O)N(C)C)N(C)C(=O)[C@H](C2CCCC2)N(C)C(=O)C2(CCCC2)NC(=O)[C@@H]2CCCN2C(=O)[C@H](CCc2cc(F)c(C(F)(F)F)c(F)c2)NC(=O)CN(C)C(=O)[C@H](Cc2ccc(C(F)(F)F)cc2)N2C[C@H](C)[C@H](C)C[C@@H](C2=O)N(C)C(=O)CN(C)C1=O [PP1364] | A (a compound having 10 or more and less than 20 is denoted as A) | B (a compound having 3 or more and less than 10 is denoted as B) |
| 4.2 nM | CC[C@H](C)[C@@H]1NC(=O)[C@H](CC)N(C)C(=O)C[C@@H](C(=O)N2CCOCC2)N(C)C(=O)[C@H](C2CCCC2)N(C)C(=O)C2(CCCC2)NC(=O)[C@@H]2CCCN2C(=O)[C@H](CCc2cc(F)c(C(F)(F)F)c(F)c2)NC(=O)CN(C)C(=O)[C@H](Cc2ccc(C(F)(F)F)cc2)N2C[C@H](C)[C@H](C)C[C@@H](C2=O)N(C)C(=O)CN(C)C1=O [PP1365] | A (a compound having 10 or more and less than 20 is denoted as A) | B (a compound having 3 or more and less than 10 is denoted as B) |
| 14 nM | CC[C@H](C)[C@@H]1NC(=O)[C@H](CC)N(C)C(=O)C[C@@H](C(=O)N2CCOCC2)N(C)C(=O)[C@H](C2CCCC2)N(C)C(=O)C2(CCC2)NC(=O)[C@@H]2CCCN2C(=O)[C@H](CCc2cc(F)c(C(F)(F)F)c(F)c2)NC(=O)CN(C)C(=O)[C@H](Cc2ccc(C(F)(F)F)cc2)N2C[C@H](C)[C@H](C)C[C@@H](C2=O)N(C)C(=O)CN(C)C1=O [PP1366] | A (a compound having 10 or more and less than 20 is denoted as A) | B (a compound having 3 or more and less than 10 is denoted as B) |
